Assays:
Type in all cases: in vivo
[1] = tested on: Italian ryegrass (Lolium multiflorum); test: Test A preemergence, directed soil spray; conditions: approx. 10 days
Description: (§1) Seeds of plant species selected from barnyardgrass (Echinochloa crus-galli), kochia (Kochia scoparia), ragweed (common ragweed, Ambrosia elatior), Italian ryegrass (Lolium multiflorum), giant foxtail (Setaria faberii), and pigweed (Amaranthus retroflexus) were planted into a blend of loam soil and sand and treated preemergence with a directed soil spray using test chemicals formulated in a non-phytotoxic solvent mixture which included a surfactant. At the same time, plants selected from these weed species and also wheat (Triticum aestivum), corn (Zea mays), blackgrass (Alopecurus myosuroides), and galium (catchweed bedstraw, Galium aparine) were planted in pots containing the same blend of loam soil and sand and treated with postemergence applications of test chemicals formulated in the same manner. Plants ranged in height from 2 to 10 cm and were in the one- to two-leaf stage for the postemergence treatment. Treated plants and untreated controls were maintained in a greenhouse for approximately 10 days, after which time all treated plants were compared to untreated controls and visually evaluated for injury. Plant response ratings, summarized in Table A, are based on a 0 to 100 scale where 0 is no effect and 100 is complete control. A dash (-) response means no test result.

[2] = tested on: giant foxtail (Setaria faberii); test: Test A preemergence, directed soil spray; conditions: approx. 10 days
Description: as §1

[3] = tested on: pigweed (Amaranthus retroflexus); test: Test A preemergence, directed soil spray; conditions: approx. 10 days
Description: as §1

[4] = tested on: barnyardgrass (Echinochloa crus-galli); test: Test A preemergence, directed soil spray; conditions: approx. 10 days
Description: as §1

[5] = tested on: ragweed (common ragweed, Ambrosia elatior); test: Test A preemergence, directed soil spray; conditions: approx. 10 days
Description: as §1

kochia (Kochia scoparia) [6] = test: Test A preemergence, directed soil spray; conditions: approx. 10 days
Description: as §1

[7] = tested on: sedge, umbrella (small-flower umbrella sedge, Cyperus difformis); test: Test B flooded paddy test; parameters: key: 0 = no effect, 100 = complete control; conditions: Flood, 250 g ai/ha applied to paddy water at 2-leaf stage; visually evaluated after 13 to 15 days; scale 0 (no effect) to 100 (complete control)
Description: (§2) Plant species in the flooded paddy test selected from rice (Oryza sativa), sedge, umbrella (small-flower umbrella sedge, Cyperus difformis), ducksalad (Heteranthera limosa), and barnyardgrass (Echinochloa crus-galli) were grown to the 2-leaf stage for testing. At time of treatment, test pots were flooded to 3 cm above the soil surface, treated by application of test compounds directly to the paddy water, and then maintained at that water depth for the duration of the test. Treated plants and controls were maintained in a greenhouse for 13 to 15 days, after which time all species were compared to controls and visually evaluated. Plant response ratings, summarized in Table B, are based on a scale of 0 to 100 where 0 is no effect and 100 is complete control. A dash (-) response means no test result.

[8] = tested on: ducksalad (Heteranthera limosa); test: Test B flooded paddy test; parameters: key: 0 = no effect, 100 = complete control; conditions: Flood, 250 g ai/ha applied to paddy water at 2-leaf stage; visually evaluated after 13 to 15 days; scale 0 (no effect) to 100 (complete control)
Description: as §2

rice (Oryza sativa) = test: Test B flooded paddy test; parameters: key: 0 = no effect, 100 = complete control; conditions: Flood, 250 g ai/ha applied to paddy water at 2-leaf stage; visually evaluated after 13 to 15 days; scale 0 (no effect) to 100 (complete control)
Description: as §2

[9] = tested on: barnyardgrass (Echinochloa crus-galli); test: Test B flooded paddy test; parameters: key: 0 = no effect, 100 = complete control; conditions: Flood, 250 g ai/ha applied to paddy water at 2-leaf stage; visually evaluated after 13 to 15 days; scale 0 (no effect) to 100 (complete control)
Description: as §2

[10] = tested on: Italian ryegrass (Lolium multiflorum); test: Test A postemergence application; conditions: approx. 10 days
Description: as §1

[11] = tested on: galium (catchweed bedstraw, Galium aparine); test: Test A postemergence application; conditions: approx. 10 days
Description: as §1

[12] = tested on: wheat (Triticum aestivum); test: Test A postemergence application; conditions: approx. 10 days
Description: as §1

[13] = tested on: giant foxtail (Setaria faberii); test: Test A postemergence application; conditions: approx. 10 days
Description: as §1

[14] = tested on: pigweed (Amaranthus retroflexus); test: Test A postemergence application; conditions: approx. 10 days
Description: as §1

[15] = tested on: barnyardgrass (Echinochloa crus-galli); test: Test A postemergence application; conditions: approx. 10 days
Description: as §1

corn (Zea mays) = test: Test A postemergence application; conditions: approx. 10 days
Description: as §1

[16] = tested on: ragweed (common ragweed, Ambrosia elatior); test: Test A postemergence application; conditions: approx. 10 days
Description: as §1

[17] = tested on: blackgrass (Alopecurus myosuroides); test: Test A postemergence application; conditions: approx. 10 days
Description: as §1

kochia (Kochia scoparia) [18] = test: Test A postemergence application; conditions: approx. 10 days
Description: as §1

O=c1cccc(Oc2ncc(Cl)cn2)n1-c1cccc(C(F)(F)F)c1 [Compound 2, 6-[(5-chloro-2-pyrimidinyl)oxy]-1-[3-(trifluoromethyl)phenyl]-2(1H)-pyridinone]
Plant response rating (0 to 100 scale, 0 no effect, 100 complete control), Ryegrass, Italian ([1]; 125 g ai/ha): 0
Plant response rating (0 to 100 scale, 0 no effect, 100 complete control), Ryegrass, Italian ([1]; 500 g ai/ha): 0
Plant response rating (0 to 100 scale, 0 no effect, 100 complete control), Foxtail, Giant ([2]; 125 g ai/ha): 0
Plant response rating (0 to 100 scale, 0 no effect, 100 complete control), Foxtail, Giant ([2]; 500 g ai/ha): 90
Plant response rating (0 to 100 scale, 0 no effect, 100 complete control), Pigweed ([3]; 125 g ai/ha): 0
Plant response rating (0 to 100 scale, 0 no effect, 100 complete control), Pigweed ([3]; 500 g ai/ha): 20
Plant response rating (0 to 100 scale, 0 no effect, 100 complete control), Barnyardgrass ([4]; 125 g ai/ha): 0
Plant response rating (0 to 100 scale, 0 no effect, 100 complete control), Barnyardgrass ([4]; 500 g ai/ha): 0
Plant response rating (0 to 100 scale, 0 no effect, 100 complete control), Ragweed ([5]; 125 g ai/ha): 0
Plant response rating (0 to 100 scale, 0 no effect, 100 complete control), Ragweed ([5]; 500 g ai/ha): 0
Plant response rating (0 to 100 scale, 0 no effect, 100 complete control), Kochia (kochia (Kochia scoparia) [6]; 125 g ai/ha): 0
Plant response rating (0 to 100 scale, 0 no effect, 100 complete control), Kochia (kochia (Kochia scoparia) [6]; 500 g ai/ha): 30
Plant response rating, Sedge, Umbrella [7]: 0
Plant response rating, Ducksalad [8]: 0
Plant response rating, Rice (rice (Oryza sativa)): 0
Plant response rating, Barnyardgrass [9]: 0
Plant response rating (0 to 100 scale, 0 no effect, 100 complete control), Ryegrass, Italian ([10]; 125 g ai/ha): 0
Plant response rating (0 to 100 scale, 0 no effect, 100 complete control), Ryegrass, Italian ([10]; 500 g ai/ha): 0
Plant response rating (0 to 100 scale, 0 no effect, 100 complete control), Galium ([11]; 125 g ai/ha): 20
Plant response rating (0 to 100 scale, 0 no effect, 100 complete control), Galium ([11]; 500 g ai/ha): 60
Plant response rating (0 to 100 scale, 0 no effect, 100 complete control), Wheat ([12]; 125 g ai/ha): 0
Plant response rating (0 to 100 scale, 0 no effect, 100 complete control), Wheat ([12]; 500 g ai/ha): 20
Plant response rating (0 to 100 scale, 0 no effect, 100 complete control), Foxtail, Giant ([13]; 125 g ai/ha): 0
Plant response rating (0 to 100 scale, 0 no effect, 100 complete control), Foxtail, Giant ([13]; 500 g ai/ha): 60
Plant response rating (0 to 100 scale, 0 no effect, 100 complete control), Pigweed ([14]; 125 g ai/ha): 30
Plant response rating (0 to 100 scale, 0 no effect, 100 complete control), Pigweed ([14]; 500 g ai/ha): 80
Plant response rating (0 to 100 scale, 0 no effect, 100 complete control), Barnyardgrass ([15]; 125 g ai/ha): 0
Plant response rating (0 to 100 scale, 0 no effect, 100 complete control), Barnyardgrass ([15]; 500 g ai/ha): 0
Plant response rating (0 to 100 scale, 0 no effect, 100 complete control), Corn (corn (Zea mays); 125 g ai/ha): 0
Plant response rating (0 to 100 scale, 0 no effect, 100 complete control), Corn (corn (Zea mays); 500 g ai/ha): 20
Plant response rating (0 to 100 scale, 0 no effect, 100 complete control), Ragweed ([16]; 125 g ai/ha): 0
Plant response rating (0 to 100 scale, 0 no effect, 100 complete control), Ragweed ([16]; 500 g ai/ha): 0
Plant response rating (0 to 100 scale, 0 no effect, 100 complete control), Blackgrass ([17]; 125 g ai/ha): 0
Plant response rating (0 to 100 scale, 0 no effect, 100 complete control), Blackgrass ([17]; 500 g ai/ha): 0
Plant response rating (0 to 100 scale, 0 no effect, 100 complete control), Kochia (kochia (Kochia scoparia) [18]; 125 g ai/ha): 30
Plant response rating (0 to 100 scale, 0 no effect, 100 complete control), Kochia (kochia (Kochia scoparia) [18]; 500 g ai/ha): 90
